Data as given in patent publication US9353089B2, “Compositions and methods for the treatment of malaria” (Saint Louis University, priority 2013, dated 2016).
Like-named read-outs stand apart in the source and are kept apart here.

Legend:
[1] = target: Plasmepsin (PM-4; Plm IV) (Plasmodium falciparum (isolate 3D7), UniProt Q8IM16); test: Plasmepsin-4 enzyme inhibition assay; format: biochemical; conditions: Table 8
Experimental: Plasmepsin-2 (PM-2; Plm II) and Plasmepsin (PM-4; Plm IV) expression and purification was performed following the published protocols (Istvan E S and Goldberg D E, 2005). The final purified protein was activated by diluting the protein to 0.3 mg/mL in activating buffer (0.1 M citrate pH 4.5, 0.1% Tween-20, 50 mM dithiothreitol) and incubated at room temperature for 40 min, then the activated enzyme was diluted in assay buffer (50 mM sodium acetate pH 4.7, 0.01% Tween-20). The enzymatic inhibition reaction was performed in 384 well plates with a total volume of 20 μl. 10 μl of diluted PM-2 or PM-4 enzyme was added to the 384-well plate except blank wells (blank wells add 10 μL of assay buffer) and 20 nL of serials of diluted 1000× compounds were added to the wells with 520 Echo® Liquid Handling System (Labcyte Inc.). 10 μL PM-2 peptide substrate (AnaSpec, Cat#, 62050) with assay buffer was then added to final concentration of 20 μM to start the reaction. After incubation the reaction at room temperature for 60 min, the fluorescence intensity at Ex/Em=360 nm/535 nm was measured using EnVision multilabel plate reader (Perkin-Elmer). The IC50 values were obtained using Graph Pad Prism 4 and are reported in Tables 8 and 9 below as PM-2 IC50 values.

[2] = target: Plasmepsin-2 (PM-2; Plm II) (Plasmodium falciparum (isolate HB3), UniProt P46925); test: Plasmepsin-2 enzyme inhibition assay; format: biochemical
Plasmepsin-2 (PM-2; Plm II), sequence (P46925 125-453 limits assumed): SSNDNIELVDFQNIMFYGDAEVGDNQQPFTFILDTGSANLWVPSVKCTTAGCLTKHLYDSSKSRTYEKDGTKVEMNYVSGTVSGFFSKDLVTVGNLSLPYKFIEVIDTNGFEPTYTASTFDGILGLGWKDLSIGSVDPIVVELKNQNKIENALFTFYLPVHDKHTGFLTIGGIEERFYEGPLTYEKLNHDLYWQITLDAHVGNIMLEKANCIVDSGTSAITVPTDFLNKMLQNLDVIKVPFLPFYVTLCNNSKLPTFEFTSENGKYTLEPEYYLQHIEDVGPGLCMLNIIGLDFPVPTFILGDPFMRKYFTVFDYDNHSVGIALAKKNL
Summary of the method: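 Enzymes activated in pH 4.5 citrate/DTT buffer, then assayed in 50 mM sodium acetate pH 4.7, 0.01% Tween-20. Compounds added before fluorogenic peptide substrate (final 20 µM); 60 min at room temperature, fluorescence Ex/Em 360/535 nm, IC50 by curve fit.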

[3] = test system: Plasmodium falciparum 3D7 (CQ-sensitive); test: In vitro antimalarial assay (malaria SYBR Green I-based fluorescence, MSF), 3D7; format: cell-based
Summary of the method: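 Asynchronous P. falciparum 3D7 cultures (0.5% parasitemia, 2% hematocrit) were exposed to serially diluted compounds, in quadruplicate. Growth was then quantified by SYBR Green I fluorescence after adding lysis buffer containing 0.2 μL/mL dye.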

[4] = target: recombinant human Cathepsin E (Homo sapiens (Human), UniProt P14091); test: Cathepsin E enzyme inhibition FRET assay; format: biochemical; conditions: Table 8; read-out: CatE IC50
recombinant human Cathepsin E, sequence (P14091 54-396): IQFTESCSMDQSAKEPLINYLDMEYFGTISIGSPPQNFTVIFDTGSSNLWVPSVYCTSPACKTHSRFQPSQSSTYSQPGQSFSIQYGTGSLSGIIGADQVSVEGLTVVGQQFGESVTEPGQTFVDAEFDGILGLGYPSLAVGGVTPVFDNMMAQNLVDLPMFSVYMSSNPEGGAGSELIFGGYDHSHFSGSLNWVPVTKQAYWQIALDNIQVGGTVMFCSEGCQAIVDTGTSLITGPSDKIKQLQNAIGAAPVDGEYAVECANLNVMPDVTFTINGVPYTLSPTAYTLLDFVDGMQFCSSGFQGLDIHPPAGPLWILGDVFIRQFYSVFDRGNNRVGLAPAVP
Experimental: (§1) The enzymatic inhibition activity assays were determined using the fluorescence resonance energy transfer (FRET) assay. The assays were performed in a 384-well plate format. […] The concentration of Cathepsin D was 20 ng/μL, and 1 ng/μL of Cathepsin E was used. CatD and CatE were activated by incubation in assay buffer (0.1 M NaOAc, 0.2 M NaCl, pH 3.5) at room temperature for 30 min. Subsequently, the rhBACE-1 substrate (R&D Systems, catalog# ES004), the Cathepsin D and Cathepsin E substrate (R&D Systems, Catalog # ES001) were added accordingly to final concentration 20 μM to initiate the reaction. After 60 min incubation at room temperature, the time-resolved fluorescence at Ex/Em=360 nm/460 nm was measured on an EnVision multilabel plate reader (Perkin-Elmer). The analytical software, GraphPad Prism 5.0 (GraphPad Software, Inc., USA) was used to generate IC50 values via non-linear regression analysis, which are reported in Tables 8-13 below as BACE1 IC50 values.

[5] = target: recombinant human BACE1 (Homo sapiens, UniProt P56817); test: β-Secretase (BACE1) enzyme inhibition FRET assay; format: biochemical
recombinant human BACE1 (Homo sapiens, UniProt P56817), sequence (P56817 46-501 limits assumed): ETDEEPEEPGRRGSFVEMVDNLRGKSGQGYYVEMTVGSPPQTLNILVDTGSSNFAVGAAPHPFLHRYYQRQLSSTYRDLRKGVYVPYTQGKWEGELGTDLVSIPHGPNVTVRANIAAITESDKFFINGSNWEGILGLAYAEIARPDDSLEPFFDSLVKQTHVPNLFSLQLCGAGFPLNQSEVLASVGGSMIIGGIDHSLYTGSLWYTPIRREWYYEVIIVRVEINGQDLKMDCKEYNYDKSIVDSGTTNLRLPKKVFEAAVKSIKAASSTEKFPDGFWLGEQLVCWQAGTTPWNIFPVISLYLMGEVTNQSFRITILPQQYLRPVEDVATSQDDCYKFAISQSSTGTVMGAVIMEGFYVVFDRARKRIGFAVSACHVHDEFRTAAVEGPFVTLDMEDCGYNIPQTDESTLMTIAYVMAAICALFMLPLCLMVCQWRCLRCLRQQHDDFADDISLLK
Experimental: (§2) The enzymatic inhibition activity assays were determined using the fluorescence resonance energy transfer (FRET) assay. The assays were performed in a 384-well plate format. […] CatD and CatE were activated by incubation in assay buffer (0.1 M NaOAc, 0.2 M NaCl, pH 3.5) at room temperature for 30 min. Subsequently, the rhBACE-1 substrate (R&D Systems, catalog# ES004), the Cathepsin D and Cathepsin E substrate (R&D Systems, Catalog # ES001) were added accordingly to final concentration 20 μM to initiate the reaction. After 60 min incubation at room temperature, the time-resolved fluorescence at Ex/Em=360 nm/460 nm was measured on an EnVision multilabel plate reader (Perkin-Elmer). The analytical software, GraphPad Prism 5.0 (GraphPad Software, Inc., USA) was used to generate IC50 values via non-linear regression analysis, which are reported in Tables 8-13 below as BACE1 IC50 values.

[6] = target: recombinant human Cathepsin D (Homo sapiens (Human), UniProt P07339); test: Cathepsin D enzyme inhibition FRET assay; format: biochemical; conditions: Table 8; read-out: CatD IC50
recombinant human Cathepsin D, sequence (P07339 65-412): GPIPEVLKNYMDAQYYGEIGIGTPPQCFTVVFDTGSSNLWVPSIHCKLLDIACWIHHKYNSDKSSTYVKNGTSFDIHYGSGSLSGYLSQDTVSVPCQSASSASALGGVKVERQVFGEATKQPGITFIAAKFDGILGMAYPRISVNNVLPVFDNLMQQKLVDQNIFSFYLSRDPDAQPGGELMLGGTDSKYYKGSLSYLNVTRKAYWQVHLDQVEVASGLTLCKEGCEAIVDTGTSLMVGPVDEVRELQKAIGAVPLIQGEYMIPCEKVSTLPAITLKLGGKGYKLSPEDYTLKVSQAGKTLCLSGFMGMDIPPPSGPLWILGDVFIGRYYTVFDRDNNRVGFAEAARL
Experimental: as §1

[7] = test system: recombinant human BACE1; test: β-Secretase (BACE1) enzyme inhibition FRET assay; format: biochemical
Experimental: as §2

[8] = 3D7, Table 8, read-out: Pf 3D7 IC50
[9] = 3D7, read-out: 3D7 IC50 (μM), Table 13
[10] = 3D7, read-out: Pf 3D7 IC50 (μM), Table 11
[11] = 3D7, read-out: Pf 3D7 IC50, Table 8
[12] = 3D7, Table 10, read-out: Pf3D7 IC50
[13] = 3D7, Table 13, read-out: 3D7 IC50
[14] = ratio of BACE1 IC50 to PM-2 IC50
[15] = 3D7, read-out: 3D7 IC50 (μM), Table 12

Plasmepsin (PM-4; Plm IV), sequence (Q8IM16 122-449 limits assumed): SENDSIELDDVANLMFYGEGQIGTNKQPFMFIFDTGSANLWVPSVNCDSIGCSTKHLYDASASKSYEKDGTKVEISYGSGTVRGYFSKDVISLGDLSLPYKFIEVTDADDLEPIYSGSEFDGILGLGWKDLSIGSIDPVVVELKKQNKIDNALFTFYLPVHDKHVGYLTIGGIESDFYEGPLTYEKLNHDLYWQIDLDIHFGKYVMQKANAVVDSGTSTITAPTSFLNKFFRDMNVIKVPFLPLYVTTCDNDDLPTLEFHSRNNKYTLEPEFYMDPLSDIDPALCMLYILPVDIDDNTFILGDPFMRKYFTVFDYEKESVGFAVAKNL

Row | Structure (SMILES) | IC50 [1] [nM] | IC50 ([2]; Table 8, read-out: PM-II IC50) [nM] | IC50 ([5]; Table 13, read-out: BACE1 IC50) [nM] | IC50 ([2]; Table 13, read-out: PM-2 IC50) [nM] | IC50 [3, 9] [µM] | other results
1 | COc1ccc(C2(c3ccc(OC)cc3)NC(=O)N(C3CCCCC3)C2=O)cc1 | > 10000 | > 10000 |  |  |  | IC50 [3, 8]: > 10 µM
2 | COc1cccc(C2(c3cccc(OC)c3)NC(=N)N(C3CCCCC3)C2=O)c1 [Example 128, 3-cyclohexyl-2-imino-5,5-bis(3-methoxyphenyl)-imidazolidin-4-one] | 41 | 36 | 28900 | 35.9 | 0.768 | IC50 [4]: 1860 nM; IC50 ([5]; Table 8, read-out: BACE IC50): 28900 nM; IC50 [6]: 1100 nM; IC50 [3, 10]: 0.768 µM; IC50 [3, 11]: 0.768 µM
3 | COc1ccc(C2(c3ccc(OC)cc3)NC(=N)N(C3CCN(C)CC3)C2=O)cc1 [Example 166, 2-imino-5,5-bis(4-methoxyphenyl)-3-(1-methylpiperidin-4-yl)imidazolidin-4-one] | 109 | 35 |  | 34.7 |  | IC50 [3, 8]: 0.697 µM; IC50 [3, 12]: 0.697 µM; IC50 [3, 13]: 0.697 µM
4 | COc1ccc(C2(c3cccc(-c4cccnc4)c3)NC(=N)N(C3CCCCC3)C2=O)cc1 (centres unmarked) [Example 171, 3-cyclohexyl-2-imino-5-(4-methoxyphenyl)-5-[3-(pyridin-3-yl)phenyl]-imidazolidin-4-one] | 7 | 7 | ~7150 | 6.97 | 0.595 | IC50 [4]: 4010 nM; IC50 ([5]; Table 8, read-out: BACE IC50): ~7150 nM; IC50 [6]: ~14900 nM; IC50 [3, 10]: 0.595 µM; IC50 [3, 11]: 0.595 µM
5 | COc1ccc(C2(c3ccc(OC)cc3)NC(=N)N(C3CCNCC3)C2=O)cc1 [Example 207, 2-imino-5,5-bis(4-methoxyphenyl)-3-(piperidin-4-yl)-imidazolidin-4-one] | 192 | 505 |  | 505 |  | IC50 [3, 8]: > 5 µM; IC50 [3, 12]: > 5 µM; IC50 [3, 13]: > 5 µM
6 | COc1cccc(-c2cccc(C3(c4ccccc4)NC(=N)N(C4CCOCC4)C3=O)c2)c1 (centres unmarked) [Example 324, 2-imino-5-[3-(3-methoxyphenyl)-phenyl]-3-(oxan-4-yl)-5-phenylimidazolidin-4-one] |  |  | 2460 | 11.3 | 1.46 | BACE1/PM2 Ratio [7, 14]: 218; IC50 ([5]; Table 12, read-out: BACE1 IC50): 2460 nM; IC50 ([2]; Table 12, read-out: PM-2 IC50): 11.3 nM; IC50 [3, 15]: 1.46 µM
7 | COc1cccc(-c2cccc(C3(c4ccccc4)NC(=N)N(C4CCCCC4)C3=O)c2)c1 (centres unmarked) [Example 326, 3-cyclohexyl-2-imino-5-[3-(3-methoxyphenyl)phenyl]-5-phenylimidazolidin-4-one] |  |  | ~8900 | 33.1 | 1.34 | BACE1/PM2 Ratio [7, 14]: ~270; IC50 ([5]; Table 12, read-out: BACE1 IC50): ~9000 nM; IC50 ([2]; Table 12, read-out: PM-2 IC50): 33.1 nM; IC50 [3, 15]: 1.34 µM
8 | COc1cccc(-c2cccc(C3(C4CC4)NC(=N)N(C4CCCCC4)C3=O)c2)c1 (centres unmarked) [Example 328, 3-cyclohexyl-5-cyclopropyl-2-imino-5-[3-(3-methoxyphenyl)-phenyl]imidazolidin-4-one] |  |  | ~6800 | 104 | 0.746 | BACE1/PM2 Ratio [7, 14]: 67; IC50 ([5]; Table 12, read-out: BACE1 IC50): ~7000 nM; IC50 ([2]; Table 12, read-out: PM-2 IC50): 104 nM
9 | COc1cccc(-c2cccc(C3(C4CC4)NC(=N)N(C4CCOCC4)C3=O)c2)c1 (centres unmarked) [Example 329, 5-cyclopropyl-2-imino-5-[3-(3-methoxyphenyl)-phenyl]-3-(oxan-4-yl)imidazolidin-4-one] |  |  | ~3600 | 83.1 | 0.621 | BACE1/PM2 Ratio [7]: 48; IC50 ([5]; Table 12, read-out: BACE1 IC50): ~4000 nM; IC50 ([2]; Table 12, read-out: PM-2 IC50): 83.1 nM; IC50 [3, 15]: 0.746 µM
10 | COc1ccc(C2(c3cnn(C)c3)NC(=N)N(C3CCOCC3)C2=O)cc1 (centres unmarked) [Example 336, 2-imino-5-(4-methoxyphenyl)-5-(1-methyl-1H-pyrazol-4-yl)-3-(oxan-4-yl)-imidazolidin-4-one] |  |  | > 10000 | 395 |  | inhibition of growth at 1 µM ([3]; 3D7, 72 h, read-out: 3D7 % inh @ 1 μM): 70%
11 | COc1ccc(C2(C3CCCCC3)NC(=N)N(C3CCCCC3)C2=O)cc1 (centres unmarked) [Example 447, 3,5-dicyclohexyl-2-imino-5-(4-methoxyphenyl)imidazolidin-4-one] |  |  | 17300 | 67.4 | 0.494 | 
12 | N=C1NC(c2cccc(-c3cccnc3)c2)(C2CC2)C(=O)N1C1CCOCC1 (centres unmarked) [Example 487, 5-cyclopropyl-2-imino-5-(3-(pyridin-3-yl)phenyl)-3-(tetrahydro-2H-pyran-4-yl)imidazolidin-4-one] |  |  | 8650 | 512 | 0.248 | 
13 | N#Cc1cncc(-c2cccc(C3(C4CC4)NC(=N)N(C4CCOCC4)C3=O)c2)c1 (centres unmarked) [Example 488, 5-(3-(4-cyclopropyl-2-imino-5-oxo-1-(tetrahydro-2H-pyran-4-yl)imidazolidin-4-yl)phenyl)nicotinonitrile] |  |  | 2980 | 443 | 0.362 | 
14 | N=C1NC(c2cccc(-c3cncc(Cl)c3)c2)(C2CC2)C(=O)N1C1CCOCC1 (centres unmarked) [Example 489, 5-(3-(5-chloropyridin-3-yl)phenyl)-5-cyclopropyl-2-imino-3-(tetrahydro-2H-pyran-4-yl)imidazolidin-4-one] |  |  | 1160 | 211 | 0.268 | 
15 | COc1ccc(C2(C3CC3)NC(=N)N(C3CCOCC3)C2=O)cc1-c1cccc(C#N)c1 (centres unmarked) [Example 491, 5′-(4-cyclopropyl-2-imino-5-oxo-1-(tetrahydro-2H-pyran-4-yl)imidazolidin-4-yl)-2′-methoxy-[1,1′-biphenyl]-3-carbonitrile] |  |  | 8320 | 51.7 | 0.47 | 
16 | N#Cc1cncc(-c2cccc(C3(C4CC4)NC(=N)N(C4CCCCC4)C3=O)c2)c1 (centres unmarked) [Example 513, 5-(3-(1-cyclohexyl-4-cyclopropyl-2-imino-5-oxoimidazolidin-4-yl)phenyl)nicotinonitrile] |  |  | 6640 | 219 | 0.4 | 
17 | N=C1NC(c2cccc(-c3cccnc3)c2)(C2CCCCC2)C(=O)N1C1CCOCC1 (centres unmarked) [Example 517, 5-cyclohexyl-2-imino-5-(3-(pyridin-3-yl)phenyl)-3-(tetrahydro-2H-pyran-4-yl)imidazolidin-4-one] |  |  | 14700 | 125 | 0.35 | 
18 | CCC(CN1C(=N)NC(c2ccccc2)(c2ccccc2)C1=O)c1ccccc1 (centres unmarked) [drawing 192] | 45 | 12 |  |  |  | IC50 [4]: 99 nM; IC50 ([5]; Table 8, read-out: BACE IC50): 2300 nM; IC50 [6]: 385 nM; IC50 [3, 11]: 2.76 µM
